Reference: paper PMC12365235, “Molecular mechanisms of thiazide-like diuretics-mediated inhibition of the human Na-Cl cotransporter” (Nature Communications, 2025)

Tested on: hNCC(V231M)
Experiment: 125I- uptake assay, hNCC(V231M) variant
Type: cell-based, human
Conditions: V231M polymorphism
Protocol: HEK293S cell lines, cultured in 293 Freestyle medium (Life Technologies; plus 10% fetal bovine serum), stably expressing hNCC and its variants were generated following published protocols. Cells were transfected using Lipofectamine 3000 (Invitrogen) with a pSBbi-RP-based plasmid containing hNCC or its variants and the SB100X vector. Puromycin (2 μg/mL; Gemini Bio-Products) was used for selection of stable cell lines.
To prepare for the uptake experiment, cells were plated at 0.5 × 10^6 cells/well in 24-well plates one day in advance. To activate NCC, cells were treated with a chloride-free hypotonic solution composed of 67.5 mM sodium-, 2.5 mM potassium-, 0.25 mM magnesium-, and 0.25 mM calcium-gluconate, as well as 7.5 mM HEPES pH 7.4 (buffered using Tris) at 37 °C for 10 min[72]. After the activation step, the experiments were carried out at room temperature. Ten minutes before the start of ^125I^− uptake, 70 μM Bumetanide (Thermo Scientific Chemicals) and 100 μM 4,4′-diisothiocyanatostilbene-2,2′-disulfonic acid (DIDS; Sigma) were added to suppress background iodide uptake activity. Indicated thiazide diuretics were also added to the indicated concentrations 10 min before the start of ^125I^− uptake. The original buffer was switched to an uptake buffer composed of 135 mM Na-gluconate, 5 mM K-gluconate, 1 mM Mg-gluconate, 1 mM Ca-gluconate, 70 μM bumetanide, 100 μM DIDS, 1 mM NaI, 0.25 μCi/ml Na^125I (American Radiolabeled Chemicals, Inc.), and 15 mM HEPES pH 7.4 (buffered using Tris), in the presence or absence of thiazide diuretics to initiate ^125I^− uptake. The ^125I^− uptake process lasted 1 h and was stopped by two rapid washes using ice-cold 110 mM MgCl2. Cells lysed using 1% sodium dodecyl sulfate (SDS) were analyzed by scintillation counting.
To calculate the fold change of the half-maximal inhibitory concentration (IC50) between hNCC(WT) and different hNCC variants, individual dose-response curves were normalized first using the smallest mean and the value of the lowest concentration as 0% and 100%, respectively. The normalized data were then fitted using the “EC50 shift” nonlinear regression in GraphPad Prism 10 with the shared EC50Control assigned to be the IC50 of hNCC(WT). The following constraints were used in the EC50 shift analysis. The EC50Control was set to be shared across all curves under analysis and constrained to be greater than 0. The EC50Ratio was constrained to be greater than 0. The bottom, top, and HillSlope were constrained to be 0, 100, and −1, respectively. For Fig. 1f, g and Supplementary Fig. 2d, GraphPad Prism 10 was used to perform curve fitting and IC50 calculation for normalized data using y = 100/(1 + (x/IC50)).

Q: For `NS(=O)(=O)c1cc2c(cc1Cl)NCNS2(=O)=O` [hydrochlorothiazide], which “sensitivity relative to hNCC(WT) (fold lower)” value is on record?
A: nearly as sensitive as the wild-type
